Tests used:
[1] = system: type 2 herpes simplex virus, strain G (ATCC VR-734); experiment: Lethal herpes infection in mice by vaginal infection, protective effect of gels; assay type: in vivo
Description: Eight groups of animals, containing 15 subjects each, were formed to conduct the experiment.
Groups 1-6: infected with type 2 herpes simplex virus and administered gels I-VI (experimental groups 1-6).
Group 8: infected with type 2 herpes simplex virus and not administered any pharmaceutical preparations (virus control).
Type 2 herpes simplex virus, strain G (ATCC VR-734, USA), was used in the experiment. The virus was cultivated in the T98G cell culture (human brain glioblastoma), then adapted to mice by two consecutive intracerebral passages. To prepare the final infective material, the animals were intracerebrally infected with brain tissue homogenate from the second passage; on the 4th day post infection, the animals were euthanized, their brain was extracted, homogenized, used to infect Vero cells, and incubated for 48 hours at 37° C. under 5% CO2 using the culture fluid, in which the infectious titer of the virus was previously determined, as the infective material.
The murine vaginal epithelium was injured with a scarifier for vaginal smears, after which the animals were infected with 30 μl of the virus at a 10^6 TCID50 dose. The examined gels were administered to mice in […] per the following regimen: 0.05 ml once a day 1, 2, 3, 4, and 5 days post infection.
The animals were followed for 18 days; their mortality was recorded daily. Cessation of mortality was defined by the absence of mice with signs of herpetic vaginitis (vaginal discharge) and complications thereof (posterior limb paresis). Based on the mortality data for each group, the mortality rate (Mr, ratio of the fallen animals at the time of control to the total number of infected animals in the group), protective index (IP, ratio of the difference in the percentage of mortality in the control and experimental groups to the percentage of mortality in the control group), and average life span of the animals (ALS) per each day of the experiment were calculated.
The protective effect of the peptide-containing gels was assessed by the reduction in the specific mortality and increase in the life span of the animals compared to the control group that wasn't treated.

[2] = system: human herpes simplex virus type 2 (HPV-2); details: male rabbits, local application; cited from earlier work
[3] = guinea pigs, HPV-2; cited from earlier work
HPV-2 = details: guinea pigs; cited from earlier work
[4] = n = 15, vaginal HSV-2 10^6 TCID50, gel 0.05 ml once a day days 1-5, followed 18 days
[5] = n = 15, vaginal HSV-2, followed 18 days

For `Nc1nc2c(ncn2COCCO)c(=O)[nH]1` [Acyclovir], the “Number of dead animals” value [1, 4] was 4, the “Number of survived animals” value [1, 4] was 11 and the “ALS (average life span)” value [1, 5] was 13.9 24 hrs. For the same compound, the Mortality [1, 5] was 26.7% and the “Increase in ALS” value ([1]; versus virus control, n = 15) was 2.6.
In the case of “NH2-His-Gly-Val-Ser-Gly-His-Gly-Gln-His-Gly-Val-His-Gly-COOH (H-HGVSGHGQHGVHG-OH) [Peptide 1]”, the “Length of the primary genital herpes outbreak” value [2] is given as “significantly shortened”, the “Viral load on the body” value [2] is given as “reduced” and the “Discharge of the virus from the lesions” value [3] is given as “statistically significant reduction”. The Disease duration (HPV-2) was “statistically significant reduction”.

Source: US20200046800A1, “BIOCIDAL AGENT” ("VERTA RESEARCH-PRODUCTION COMPANY" LTD, priority 2017, published 2020)
